ChEMBL document CHEMBL5154818, “Development of oxoisoaporphine derivatives with topoisomerase I inhibition and reversal of multidrug resistance in breast cancer MCF-7/ADR cells” (Eur J Med Chem, 2022)
The source made the active and inactive calls. The rule behind the calls is not given here.

Experiments:
[1] = molecular target: T1, ATP-dependent translocase ABCB1 (Homo sapiens, UniProt P08183); assay: Inhibition of P-gp-mediated multidrug resistance in human MCF7/ADR cells at 10 to 20 uM assessed as rhodamine123 accumulation treated with rhodamine123 measured after 24 hrs by flow cytometry; format: cell-based; conditions: nci/adr-res, dose 10-20 µM
NCI/ADR-RES [2] = assay: Induction of apoptosis in human MCF7/ADR cells assessed as increase in apoptotic rate at 2 to 8 uM measured after 48 hrs by Annexin V-FITC/propidium iodide staining based flow cytometry analysis; format: functional; conditions: dose 2-8 µM
MCF7 [3] = assay: Induction of cell cycle arrest in human MCF7 cells assessed accumulation of cells at G2 phase at 2 uM measured after 48 hrs by propidium iodide staining based flow cytometric analysis (reference value: 37.81%); format: functional
[4] = Toxicity in BALB/c nude mouse xenografted with human MCF7 cells assessed as kidney tissue damage at 1 to 10 mg/kg, ip administered 3 times a week for 3 weeks; format: organism-based; conditions: in vivo, 504 h, dose 1-10 mg/kg
MCF7 [5] = assay: Antitumor activity against human MCF7 cells xenografted in Balb/c nude mouse assessed as tumor growth inhibition at 1 mg/kg, ip administered 3 times a week for 3 weeks; format: functional; conditions: MCF7, 504 h, read-out: TGI
[6] = Toxicity in BALB/c nude mouse xenografted with human MCF7 cells assessed as heart tissue damage at 1 to 10 mg/kg, ip administered 3 times a week for 3 weeks; format: organism-based; conditions: in vivo, 504 h, dose 1-10 mg/kg
[7] = Toxicity in BALB/c nude mouse xenografted with human MCF7 cells assessed as liver tissue damage at 1 to 10 mg/kg, ip administered 3 times a week for 3 weeks; format: organism-based; conditions: in vivo, 504 h, dose 1-10 mg/kg
NCI/ADR-RES [8] = assay: Antiproliferative activity against human MCF7/ADR cells after 48 hrs by MTT assay; format: functional, cell-based
Calf thymus DNA [9] = assay: Binding affinity to calf thymus DNA assessed as hypochromicity at 20 uM measured by UV-vis absorption spectroscopy; format: nucleic-acid assay; conditions: Bos taurus
MCF7 [10] = assay: Induction of apoptosis in human MCF7 cells assessed as increase in cleaved PARP expression 1.5 to 6 uM incubated for 24 hrs by Western blotting analysis; format: functional, cell-based; conditions: dose 1.5-6 µM
NCI/ADR-RES [11] = assay: Reversal of multidrug resistant activity in human MCF7/ADR cells after 48 hrs by MTT assay; format: functional, cell-based
Calf thymus DNA [12] = assay: Binding affinity to calf thymus DNA assessed as red shift in absorption spectra at 20 uM by UV-vis absorption spectroscopy; format: nucleic-acid assay; conditions: Bos taurus
MCF7 [13] = assay: Antitumor activity against human MCF7 cells xenografted in Balb/c nude mouse assessed as tumor growth inhibition at 10 mg/kg, ip administered 3 times a week for 3 weeks; format: functional; conditions: MCF7, 504 h, read-out: TGI
MCF7 [14] = assay: Induction of cell cycle arrest in human MCF7 cells assessed accumulation of cells at S phase at 4 uM measured after 48 hrs by propidium iodide staining based flow cytometric analysis (reference value: 27.53%); format: functional
MCF7 [15] = assay: Induction of apoptosis in human MCF7 cells assessed as early apoptotic cells at 2 to 8 uM incubated for 48 hrs by Annexin V-FITC/propidium iodide staining based flow cytometry analysis; format: functional; conditions: dose 2-8 µM
NCI/ADR-RES [16] = assay: Induction of apoptosis in human MCF7/ADR cells assessed as increase in Bax expression at 5 to 20 uM measured after 24 hrs by Western blotting analysis; format: functional, cell-based; conditions: dose 5-20 µM
MCF7 [17] = assay: Induction of cell cycle arrest in human MCF7 cells assessed accumulation of cells at G1 phase at 4 uM measured after 48 hrs by propidium iodide staining based flow cytometric analysis (reference value: 45.94%); format: functional
MCF7 [18] = assay: Induction of cell cycle arrest in human MCF7 cells assessed accumulation of cells at G2 phase at 8 uM measured after 48 hrs by propidium iodide staining based flow cytometric analysis (reference value: 37.81%); format: functional
MCF7 [19] = assay: Induction of cell cycle arrest in human MCF7 cells assessed accumulation of cells at G1 phase at 8 uM measured after 48 hrs by propidium iodide staining based flow cytometric analysis (reference value: 45.94%); format: functional
L02 = assay: Antiproliferative activity against human L02 cells after 48 hrs by MTT assay; format: functional, cell-based; conditions: L02, 48 h
NCI/ADR-RES [20] = assay: Induction of apoptosis in human MCF7/ADR cells assessed as increase intracellular ROS level at 0.1 uM measured by DCFH-DA dye based flow cytometric analysis; format: functional, cell-based
[21] = molecular target: T1, ATP-dependent translocase ABCB1; assay: Inhibition of P-gp-mediated multidrug resistance in human MCF7/ADR cells at 10 to 20 uM assessed as adriamycin accumulation treated with adriamycin measured after 24 hrs by flow cytometry; format: cell-based; conditions: nci/adr-res, dose 10-20 µM
A549 = assay: Antiproliferative activity against human A549 cells after 48 hrs by MTT assay; format: functional, cell-based; conditions: A549, 48 h
[22] = molecular target: T2, DNA topoisomerase 1 (Homo sapiens) (UniProt P11387); assay: Inhibition of human DNA topoisomerase 1 assessed as reduction in pBR322 DNA relaxation at 50 to 100 uM measured by gel electrophoresis method; conditions: dose 50-100 µM
T2 sequence (whole entry): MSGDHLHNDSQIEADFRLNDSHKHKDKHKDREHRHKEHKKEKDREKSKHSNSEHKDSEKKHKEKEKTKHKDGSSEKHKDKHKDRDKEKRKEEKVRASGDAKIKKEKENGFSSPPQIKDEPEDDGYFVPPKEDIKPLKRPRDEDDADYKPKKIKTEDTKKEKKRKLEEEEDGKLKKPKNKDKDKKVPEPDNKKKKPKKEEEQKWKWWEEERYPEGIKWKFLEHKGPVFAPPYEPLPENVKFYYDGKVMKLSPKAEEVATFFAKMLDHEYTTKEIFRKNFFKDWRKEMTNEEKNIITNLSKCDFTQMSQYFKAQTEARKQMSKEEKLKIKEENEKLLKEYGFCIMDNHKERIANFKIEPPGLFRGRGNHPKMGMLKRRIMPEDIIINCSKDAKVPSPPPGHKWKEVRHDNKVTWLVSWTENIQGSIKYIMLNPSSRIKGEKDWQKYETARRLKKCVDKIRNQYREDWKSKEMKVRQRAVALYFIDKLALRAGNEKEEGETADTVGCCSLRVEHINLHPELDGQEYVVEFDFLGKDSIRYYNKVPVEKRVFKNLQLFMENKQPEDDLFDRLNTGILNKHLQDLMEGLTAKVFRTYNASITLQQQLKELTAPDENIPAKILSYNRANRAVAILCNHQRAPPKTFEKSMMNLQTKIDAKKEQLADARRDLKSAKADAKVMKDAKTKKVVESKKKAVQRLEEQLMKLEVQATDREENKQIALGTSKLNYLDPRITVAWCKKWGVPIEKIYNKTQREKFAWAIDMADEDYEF

MCF7 [23] = assay: Induction of cell cycle arrest in human MCF7 cells assessed accumulation of cells at G1 phase at 2 uM measured after 48 hrs by propidium iodide staining based flow cytometric analysis (reference value: 45.94%); format: functional
[24] = molecular target: T1, ATP-dependent translocase ABCB1; assay: Inhibition of P-gp-mediated multidrug resistance in human MCF7/ADR cells assessed as decrease in P-gp expression at 10 uM measured after 24 hrs by Western blot analysis; format: cell-based; conditions: NCI/ADR-RES
NCI/ADR-RES [25] = assay: Induction of apoptosis in human MCF7/ADR cells assessed as increase in Bad expression at 5 to 20 uM measured after 24 hrs by Western blotting analysis; format: functional, cell-based; conditions: dose 5-20 µM

T1 sequence (P08183 whole entry): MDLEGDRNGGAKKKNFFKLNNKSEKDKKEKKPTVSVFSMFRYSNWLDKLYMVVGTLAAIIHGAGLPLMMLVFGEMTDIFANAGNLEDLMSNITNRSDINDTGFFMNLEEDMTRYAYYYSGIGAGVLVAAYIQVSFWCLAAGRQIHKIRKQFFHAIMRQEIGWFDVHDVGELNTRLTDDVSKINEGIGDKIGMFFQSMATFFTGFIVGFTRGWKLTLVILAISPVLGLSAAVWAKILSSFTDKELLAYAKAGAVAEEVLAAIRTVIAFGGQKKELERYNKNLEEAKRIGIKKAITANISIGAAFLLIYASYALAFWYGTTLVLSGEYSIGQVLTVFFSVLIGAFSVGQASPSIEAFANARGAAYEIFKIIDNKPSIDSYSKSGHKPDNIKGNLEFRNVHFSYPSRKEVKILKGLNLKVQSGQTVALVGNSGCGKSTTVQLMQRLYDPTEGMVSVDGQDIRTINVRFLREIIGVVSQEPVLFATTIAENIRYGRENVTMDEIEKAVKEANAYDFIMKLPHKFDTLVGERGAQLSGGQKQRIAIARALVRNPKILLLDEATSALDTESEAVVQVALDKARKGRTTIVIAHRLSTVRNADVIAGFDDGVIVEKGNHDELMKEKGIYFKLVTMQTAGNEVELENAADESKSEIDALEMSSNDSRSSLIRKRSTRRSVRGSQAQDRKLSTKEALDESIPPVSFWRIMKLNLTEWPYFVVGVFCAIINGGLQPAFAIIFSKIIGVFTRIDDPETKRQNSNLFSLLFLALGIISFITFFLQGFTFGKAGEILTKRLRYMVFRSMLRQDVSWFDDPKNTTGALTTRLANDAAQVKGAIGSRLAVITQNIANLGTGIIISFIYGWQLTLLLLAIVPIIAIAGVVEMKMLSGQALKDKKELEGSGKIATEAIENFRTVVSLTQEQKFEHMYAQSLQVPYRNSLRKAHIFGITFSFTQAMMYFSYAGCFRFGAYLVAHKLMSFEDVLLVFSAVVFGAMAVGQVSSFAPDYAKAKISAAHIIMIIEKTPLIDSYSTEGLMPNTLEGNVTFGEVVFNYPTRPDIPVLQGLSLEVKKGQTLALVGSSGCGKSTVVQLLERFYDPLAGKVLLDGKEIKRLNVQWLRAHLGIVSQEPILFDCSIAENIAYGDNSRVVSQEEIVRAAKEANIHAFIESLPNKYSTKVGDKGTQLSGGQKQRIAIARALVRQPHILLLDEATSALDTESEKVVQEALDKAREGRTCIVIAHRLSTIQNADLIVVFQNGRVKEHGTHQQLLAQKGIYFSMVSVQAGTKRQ

CC1CCCCN1CCOc1ccc2c3c(nccc13)-c1ccccc1C2=O (configuration not stated)
inhibition (INH) [1]: Active | Activity (NCI/ADR-RES [2]): 15.2% | Activity (MCF7 [3]): 33.28% | Activity [4]: Non-Toxic | inhibition in vivo at 1 mg/kg (MCF7 [5]): 32.4% | Activity [6]: Non-Toxic | Activity [7]: Non-Toxic | IC50 (NCI/ADR-RES [8]): 7.64 µM | Activity (Calf thymus DNA [9]): 33.9% | Activity (MCF7 [10]): Active | IC50 (NCI/ADR-RES [11]): 0.9 µM | OD (Calf thymus DNA [12]): 2.2 nm | inhibition in vivo at 10 mg/kg (MCF7 [13]): 7.2% | Activity (MCF7 [14]): 25.08% | Activity (MCF7 [15]): 5.4% | Activity (NCI/ADR-RES [16]): Active | Activity (MCF7 [17]): 51.07% | Activity (MCF7 [18]): 31.38% | Activity (MCF7 [19]): 53.27% | IC50 (L02): 36.5 µM | Activity (NCI/ADR-RES [20]): Active | inhibition (INH) [21]: Active | IC50 (A549): 2.39 µM | inhibition [22]: Active | Activity (MCF7 [23]): 49.45% | inhibition at 10 µM [24]: 14.9% | Activity (NCI/ADR-RES [25]): Active
